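Briefly, cells in 96-well plates were exposed to five compound concentrations for 48 h, and endpoints were estimated by linear interpolation. GI50 is the concentration that inhibits growth by half. Definition used: TGI = concentration required for complete inhibition of growth.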
Experiments:
Assay in all cases: NCI-60 cell line screen, 48 h
[1] = tested on: SW-620 colon
[2] = tested on: HCC-2998 colon
[3] = tested on: HOP-92 NSCLC
[4] = tested on: A498 renal
[5] = tested on: IGROV1 ovarian
[6] = tested on: TK-10 renal
[7] = tested on: MCF7 breast
[8] = tested on: A549 NSCLC
[9] = tested on: CAKI-1 renal
[10] = tested on: SK-OV-3 ovarian

| Structure (SMILES) | TGI [1] [µM] | TGI [2] [µM] | TGI [3] [µM] | TGI [4] [µM] | TGI [5] [µM] | TGI [6] [µM] | TGI [7] [µM] | TGI [8] [µM] | TGI [9] [µM] | TGI [10] [µM] | GI50 [4] [µM] |
| --- | --- | --- | --- | --- | --- | --- | --- | --- | --- | --- | --- |
| CC(=O)Oc1ccn2nc(C)c(Br)c2c1 | > 100 | > 100 | > 100 | > 100 | > 100 | > 100 | > 100 | > 100 | – | – | – |
| O=C(c1ccc([N+](=O)[O-])cc1)N1CCCC1 | > 100 | > 100 | > 100 | > 100 | > 100 | > 100 | > 100 | > 100 | > 100 | – | – |
| CCn1ncc2c(=O)n3ncn(-c4ccc(Br)cc4)c3nc21 | > 100 | > 100 | – | > 100 | > 100 | > 100 | > 100 | > 100 | – | > 100 | – |
| CCOC(=O)C(NC(=O)c1cccc(Cl)c1)(Nc1cccc(C)c1)C(F)(F)F (configuration not stated) | 37.2 | 31.4 | 29 | – | 34.8 | > 100 | 39 | > 100 | 47.5 | – | – |
| O=C(c1ccco1)N(C(=O)N1CCC(c2ccccc2)CC1)c1ccccc1 | > 100 | – | – | > 100 | > 100 | > 100 | > 100 | – | > 100 | > 100 | – |
| c1ccc2c(c1)cc1ccc3cccc4ccc2c1c34 | > 100 | > 100 | > 100 | > 100 | > 100 | > 100 | – | > 100 | > 100 | > 100 | > 100 |
| O=C(C(=C(I)I)c1ccccc1)c1ccccc1 | > 100 | – | 82.9 | 28.6 | 44.4 | 83.7 | > 100 | > 100 | > 100 | > 100 | – |
| C=C1[C@@H]2CCC3[C@]4(C)C(CC[C@@]5(C)C(=O)O[C@H](O)[C@@H]45)[C@H](O)[C@]3(C2)[C@H]1OC1OC(CO)C(O)C(O)C1O (some centres not stated) | > 50 | – | – | > 50 | > 50 | > 50 | > 50 | > 50 | – | > 50 | – |
| COc1cc2c(c(OC)c1)[C@H](C)N(Cc1ccccc1)C(C)C2 (some centres not stated) | > 100 | > 100 | – | > 100 | > 100 | > 100 | > 100 | > 100 | > 100 | > 100 | – |
| COc1cc(/C=N/N=C(\N)NO)c([N+](=O)[O-])cc1OC | > 100 | > 100 | 91.7 | > 100 | > 100 | > 100 | – | > 100 | 76.2 | > 100 | – |
| CC[C@H](NC(=O)OC(C)(C)C)C(=O)NCP(=O)(OCc1ccc([N+](=O)[O-])cc1)OCc1ccc([N+](=O)[O-])cc1 | > 100 | > 100 | > 100 | – | > 100 | > 100 | > 100 | > 100 | > 100 | 86 | – |
| CC/C=N\N1C(N)=C(C#N)C(C#N)(C#N)C1CC (configuration not stated) | > 100 | > 100 | – | > 100 | > 100 | > 100 | > 100 | > 100 | > 100 | > 100 | – |

— PubChem BioAssay (NCI)
